Measurements taken from ChEMBL document CHEMBL1150159, “Semisynthetic analogues of the microtubule-stabilizing agent discodermolide: preparation and biological activity” (J Nat Prod, 2002).

Assays:
P388 = assay: Cytotoxicity against mouse P388 cells; type: functional, cell-based
A549 = assay: Cytotoxicity against human A549 cells; type: functional, cell-based

SMILES | IC50 (P388) [nM] | IC50 (A549) [nM]
C=C/C=C\[C@H](C)[C@H](OC(N)=O)[C@@H](C)[C@H](O)[C@@H](C)C/C(C)=C\[C@H](C)[C@@H](O)[C@@H](C)/C=C\[C@@H](O)C[C@@H]1OC(=O)C(C)=C[C@H]1C | 33.6 | 21.7
CCCC[C@H](C)[C@H](OC(N)=O)[C@@H](C)[C@H](OC(C)=O)[C@@H](C)C/C(C)=C\[C@H](C)[C@@H](OC(C)=O)[C@@H](C)CCCC[C@@H]1OC(=O)[C@H](C)[C@@H](OC(C)=O)[C@H]1C | > 7050 | 
C=C/C=C\[C@H](C)[C@H](OC(N)=O)[C@@H](C)[C@H](OC(C)=O)[C@@H](C)C/C(C)=C\[C@H](C)[C@@H](OC(C)=O)[C@@H](C)/C=C\[C@@H](O)C[C@@H]1OC(=O)C(C)=C[C@H]1C | > 7590 | > 7590
CCCC[C@H](C)[C@H](OC(N)=O)[C@@H](C)[C@H](O)[C@@H](C)C/C(C)=C\[C@H](C)[C@@H](O)[C@@H](C)CCCC[C@@H]1OC(=O)[C@H](C)[C@@H](O)[C@H]1C | 309 | 377
CCCC[C@H](C)[C@H](OC(N)=O)[C@@H](C)[C@H](O)[C@@H](C)C/C(C)=C\[C@H](C)[C@@H](O)[C@@H](C)/C=C\[C@@H](O)C[C@@H]1OC(=O)[C@H](C)[C@@H](O)[C@H]1C | 10 | 8.4
C=C/C=C\[C@H](C)[C@H](OC(N)=O)[C@@H](C)[C@H](OC(C)=O)[C@@H](C)C/C(C)=C\[C@H](C)[C@@H](OC(C)=O)[C@@H](C)/C=C\[C@H](C[C@@H]1OC(=O)C(C)=C[C@H]1C)OC(C)=O | 7080 | > 7130
C=C/C=C\[C@H](C)[C@H](OC(N)=O)[C@@H](C)[C@H](OC(C)=O)[C@@H](C)C/C(C)=C\[C@H](C)[C@@H](O)[C@@H](C)/C=C\[C@@H](O)C[C@@H]1OC(=O)C(C)=C[C@H]1C | > 8100 | > 8100
CCCC[C@H](C)[C@H](OC(N)=O)[C@@H](C)[C@H](O)[C@@H](C)CC(C)C[C@H](C)[C@@H](O)[C@@H](C)CC[C@@H](O)C[C@@H]1OC(=O)[C@H](C)[C@@H](O)[C@H]1C (stereo partly drawn) | > 8290 | > 8290
CCCC[C@H](C)[C@H](OC(N)=O)[C@@H](C)[C@H](O)[C@@H](C)C/C(C)=C\[C@H](C)[C@@H](O)[C@@H](C)CC[C@@H](O)C[C@@H]1OC(=O)[C@H](C)[C@@H](O)[C@H]1C | 33.8 | 67.7
C=C/C=C\[C@H](C)[C@H](OC(N)=O)[C@@H](C)[C@H](O)[C@@H](C)C/C(C)=C\[C@H](C)[C@H]1OC(=O)C=C[C@@H]1C | 3690 | 6770
C=C/C=C\[C@H](C)[C@H](O)[C@@H](C)[C@H](O)[C@@H](C)C/C(C)=C\[C@H](C)[C@H]1OC(=O)C=C[C@@H]1C | > 12800 | > 12800
C=C/C=C\[C@H](C)[C@H](OC(N)=O)[C@@H](C)[C@H](O)[C@@H](C)C/C(C)=C\[C@H](C)[C@@H](OC(C)=O)[C@@H](C)/C=C\[C@@H](O)C[C@@H]1OC(=O)C(C)=C[C@H]1C | 519 | 3130
